Where “and” joins values, the source holds several entries; their conditions need not be identical. Equal entries are not always repeated. ± gives the uncertainty stated by the source.
Experiment: xn = mol fraction of the nth substance listed

CC1COC(=O)O1 (configuration not stated) + CN(C)C=O
viscosity (298.15 K, 101.33 kPa, x1 = 0.1053): 0.89 ± 0.006 mPa·s | viscosity (298.15 K, 101.33 kPa, x1 = 0.1593): 0.942 ± 0.006 mPa·s | viscosity (298.15 K, 101.33 kPa, x1 = 0.2227): 1.004 ± 0.007 mPa·s | viscosity (298.15 K, 101.33 kPa, x1 = 0.2607): 1.047 ± 0.007 mPa·s | viscosity (298.15 K, 101.33 kPa, x1 = 0.3155): 1.107 ± 0.007 mPa·s | viscosity (298.15 K, 101.33 kPa, x1 = 0.3624): 1.164 ± 0.007 mPa·s | viscosity (298.15 K, 101.33 kPa, x1 = 0.4248): 1.246 ± 0.008 mPa·s | viscosity (298.15 K, 101.33 kPa, x1 = 0.4476): 1.278 ± 0.008 mPa·s | viscosity (298.15 K, 101.33 kPa, x1 = 0.5094): 1.37 ± 0.009 mPa·s | viscosity (298.15 K, 101.33 kPa, x1 = 0.5658): 1.462 ± 0.009 mPa·s | viscosity (298.15 K, 101.33 kPa, x1 = 0.6334): 1.582 ± 0.01 mPa·s | viscosity (298.15 K, 101.33 kPa, x1 = 0.659): 1.63 ± 0.01 mPa·s | viscosity (298.15 K, 101.33 kPa, x1 = 0.7108): 1.742 ± 0.011 mPa·s | viscosity (298.15 K, 101.33 kPa, x1 = 0.7559): 1.835 ± 0.012 mPa·s | viscosity (298.15 K, 101.33 kPa, x1 = 0.8147): 1.983 ± 0.012 mPa·s | viscosity (298.15 K, 101.33 kPa, x1 = 0.8705): 2.117 ± 0.013 mPa·s | viscosity (298.15 K, 101.33 kPa, x1 = 0.9299): 2.284 ± 0.014 mPa·s | viscosity (298.15 K, 101.33 kPa, x1 = 0.954): 2.357 ± 0.015 mPa·s | viscosity (308.15 K, 101.33 kPa, x1 = 0.0453): 0.742 ± 0.005 mPa·s | viscosity (308.15 K, 101.33 kPa, x1 = 0.1078): 0.787 ± 0.005 mPa·s | viscosity (308.15 K, 101.33 kPa, x1 = 0.1606): 0.828 ± 0.005 mPa·s | viscosity (308.15 K, 101.33 kPa, x1 = 0.2114): 0.87 ± 0.006 mPa·s | viscosity (308.15 K, 101.33 kPa, x1 = 0.2565): 0.91 ± 0.006 mPa·s | viscosity (308.15 K, 101.33 kPa, x1 = 0.2989): 0.95 ± 0.006 mPa·s | viscosity (308.15 K, 101.33 kPa, x1 = 0.3551): 1.005 ± 0.007 mPa·s | viscosity (308.15 K, 101.33 kPa, x1 = 0.4045): 1.058 ± 0.007 mPa·s | viscosity (308.15 K, 101.33 kPa, x1 = 0.4505): 1.109 ± 0.007 mPa·s | viscosity (308.15 K, 101.33 kPa, x1 = 0.4988): 1.167 ± 0.008 mPa·s | viscosity (308.15 K, 101.33 kPa, x1 = 0.5351): 1.213 ± 0.008 mPa·s | viscosity (308.15 K, 101.33 kPa, x1 = 0.6158): 1.33 ± 0.009 mPa·s | viscosity (308.15 K, 101.33 kPa, x1 = 0.6532): 1.38 ± 0.009 mPa·s | viscosity (308.15 K, 101.33 kPa, x1 = 0.7153): 1.48 ± 0.009 mPa·s | viscosity (308.15 K, 101.33 kPa, x1 = 0.7499): 1.539 ± 0.01 mPa·s | viscosity (308.15 K, 101.33 kPa, x1 = 0.802): 1.638 ± 0.01 mPa·s | viscosity (308.15 K, 101.33 kPa, x1 = 0.8517): 1.731 ± 0.011 mPa·s | viscosity (308.15 K, 101.33 kPa, x1 = 0.9033): 1.841 ± 0.012 mPa·s | viscosity (318.15 K, 101.33 kPa, x1 = 0.049): 0.664 ± 0.005 mPa·s | viscosity (318.15 K, 101.33 kPa, x1 = 0.0961): 0.694 ± 0.005 mPa·s | viscosity (318.15 K, 101.33 kPa, x1 = 0.1672): 0.74 ± 0.005 mPa·s | viscosity (318.15 K, 101.33 kPa, x1 = 0.2118): 0.772 ± 0.005 mPa·s | viscosity (318.15 K, 101.33 kPa, x1 = 0.2639): 0.811 ± 0.005 mPa·s | viscosity (318.15 K, 101.33 kPa, x1 = 0.3122): 0.849 ± 0.006 mPa·s | viscosity (318.15 K, 101.33 kPa, x1 = 0.3528): 0.884 ± 0.006 mPa·s | viscosity (318.15 K, 101.33 kPa, x1 = 0.4228): 0.946 ± 0.006 mPa·s | viscosity (318.15 K, 101.33 kPa, x1 = 0.4487): 0.97 ± 0.006 mPa·s | viscosity (318.15 K, 101.33 kPa, x1 = 0.4941): 1.015 ± 0.007 mPa·s | viscosity (318.15 K, 101.33 kPa, x1 = 0.5567): 1.081 ± 0.007 mPa·s | viscosity (318.15 K, 101.33 kPa, x1 = 0.6184): 1.152 ± 0.007 mPa·s | viscosity (318.15 K, 101.33 kPa, x1 = 0.6678): 1.216 ± 0.008 mPa·s | viscosity (318.15 K, 101.33 kPa, x1 = 0.7127): 1.271 ± 0.008 mPa·s | viscosity (318.15 K, 101.33 kPa, x1 = 0.7415): 1.311 ± 0.008 mPa·s | viscosity (318.15 K, 101.33 kPa, x1 = 0.8179): 1.424 ± 0.009 mPa·s | viscosity (318.15 K, 101.33 kPa, x1 = 0.8689): 1.505 ± 0.01 mPa·s | viscosity (318.15 K, 101.33 kPa, x1 = 0.9013): 1.56 ± 0.01 mPa·s

C1CCOC1 + CO
viscosity (298 K, 101 kPa, x1 = 0.0397): 0.527 ± 0.0055 mPa·s | viscosity (298 K, 101 kPa, x1 = 0.0463): 0.5241 ± 0.0055 mPa·s | viscosity (298 K, 101 kPa, x1 = 0.0629): 0.5179 ± 0.0054 mPa·s | viscosity (298 K, 101 kPa, x1 = 0.0984): 0.5053 ± 0.0053 mPa·s | viscosity (298 K, 101 kPa, x1 = 0.1593): 0.49 ± 0.0052 mPa·s | viscosity (298 K, 101 kPa, x1 = 0.2295): 0.4758 ± 0.005 mPa·s | viscosity (298 K, 101 kPa, x1 = 0.3081): 0.463 ± 0.0049 mPa·s | viscosity (298 K, 101 kPa, x1 = 0.3952): 0.4525 ± 0.0048 mPa·s | viscosity (298 K, 101 kPa, x1 = 0.5068): 0.4445 ± 0.0047 mPa·s | viscosity (298 K, 101 kPa, x1 = 0.6498): 0.4398 ± 0.0047 mPa·s | viscosity (298 K, 101 kPa, x1 = 0.8052): 0.4449 ± 0.0048 mPa·s | viscosity (298.15 K, 101 kPa, x1 = 0.3): 0.4761 ± 0.013 mPa·s | viscosity (298.15 K, 101 kPa, x1 = 0.3076): 0.5025 ± 0.0061 mPa·s and 0.5015 ± 0.0061 mPa·s and 0.515 ± 0.0063 mPa·s | viscosity (303 K, 101.3 kPa, x1 = 0.0471): 0.474 ± 0.029 mPa·s | viscosity (303 K, 101.3 kPa, x1 = 0.1): 0.452 ± 0.027 mPa·s | viscosity (303 K, 101.3 kPa, x1 = 0.1599): 0.435 ± 0.026 mPa·s | viscosity (303 K, 101.3 kPa, x1 = 0.2285): 0.406 ± 0.025 mPa·s | viscosity (303 K, 101.3 kPa, x1 = 0.3075): 0.38 ± 0.023 mPa·s | viscosity (303 K, 101.3 kPa, x1 = 0.3998): 0.373 ± 0.023 mPa·s | viscosity (303 K, 101.3 kPa, x1 = 0.509): 0.356 ± 0.022 mPa·s | viscosity (303 K, 101.3 kPa, x1 = 0.6399): 0.356 ± 0.022 mPa·s | viscosity (303 K, 101.3 kPa, x1 = 0.7995): 0.384 ± 0.023 mPa·s | viscosity (313 K, 101.3 kPa, x1 = 0.0471): 0.395 ± 0.024 mPa·s | viscosity (313 K, 101.3 kPa, x1 = 0.1): 0.36 ± 0.022 mPa·s | viscosity (313 K, 101.3 kPa, x1 = 0.1599): 0.35 ± 0.021 mPa·s | viscosity (313 K, 101.3 kPa, x1 = 0.2285): 0.333 ± 0.02 mPa·s | viscosity (313 K, 101.3 kPa, x1 = 0.3075): 0.31 ± 0.019 mPa·s | viscosity (313 K, 101.3 kPa, x1 = 0.3998): 0.294 ± 0.018 mPa·s | viscosity (313 K, 101.3 kPa, x1 = 0.509): 0.3 ± 0.018 mPa·s | viscosity (313 K, 101.3 kPa, x1 = 0.6399): 0.294 ± 0.018 mPa·s | viscosity (313 K, 101.3 kPa, x1 = 0.7995): 0.332 ± 0.02 mPa·s

CC(C)=O + CO
viscosity (293.15 K, 101 kPa, x1 = 0.025): 0.563 ± 0.011 mPa·s | viscosity (293.15 K, 101 kPa, x1 = 0.098): 0.507 ± 0.01 mPa·s | viscosity (293.15 K, 101 kPa, x1 = 0.244): 0.435 ± 0.009 mPa·s | viscosity (293.15 K, 101 kPa, x1 = 0.385): 0.389 ± 0.008 mPa·s | viscosity (293.15 K, 101 kPa, x1 = 0.487): 0.371 ± 0.008 mPa·s | viscosity (293.15 K, 101 kPa, x1 = 0.703): 0.342 ± 0.008 mPa·s | viscosity (293.15 K, 101 kPa, x1 = 0.865): 0.333 ± 0.007 mPa·s | viscosity (298.15 K, 101.33 kPa, x1 = 0.059): 0.4921 ± 0.012 mPa·s | viscosity (298.15 K, 101.33 kPa, x1 = 0.1261): 0.455 ± 0.011 mPa·s | viscosity (298.15 K, 101.33 kPa, x1 = 0.1889): 0.4225 ± 0.011 mPa·s | viscosity (298.15 K, 101.33 kPa, x1 = 0.2564): 0.3965 ± 0.0099 mPa·s | viscosity (298.15 K, 101.33 kPa, x1 = 0.3691): 0.367 ± 0.0092 mPa·s | viscosity (298.15 K, 101.33 kPa, x1 = 0.4581): 0.3458 ± 0.0087 mPa·s | viscosity (298.15 K, 101.33 kPa, x1 = 0.558): 0.3292 ± 0.0082 mPa·s | viscosity (298.15 K, 101.33 kPa, x2 = 0.7146): 0.3932 ± 0.0099 mPa·s | viscosity (303.15 K, 101 kPa, x1 = 0.025): 0.496 ± 0.01 mPa·s | viscosity (303.15 K, 101 kPa, x1 = 0.098): 0.449 ± 0.009 mPa·s | viscosity (303.15 K, 101 kPa, x1 = 0.244): 0.389 ± 0.008 mPa·s | viscosity (303.15 K, 101 kPa, x1 = 0.385): 0.352 ± 0.008 mPa·s | viscosity (303.15 K, 101 kPa, x1 = 0.703): 0.314 ± 0.007 mPa·s | viscosity (303.15 K, 101 kPa, x1 = 0.865): 0.308 ± 0.007 mPa·s | viscosity (313.15 K, 101 kPa, x1 = 0.025): 0.435 ± 0.009 mPa·s | viscosity (313.15 K, 101 kPa, x1 = 0.244): 0.349 ± 0.008 mPa·s | viscosity (313.15 K, 101 kPa, x1 = 0.385): 0.322 ± 0.007 mPa·s | viscosity (313.15 K, 101 kPa, x1 = 0.487): 0.311 ± 0.007 mPa·s | viscosity (313.15 K, 101 kPa, x1 = 0.703): 0.291 ± 0.007 mPa·s | viscosity (313.15 K, 101 kPa, x1 = 0.865): 0.287 ± 0.007 mPa·s | viscosity (318.15 K, 101 kPa, x1 = 0.025): 0.411 ± 0.009 mPa·s | viscosity (318.15 K, 101 kPa, x1 = 0.098): 0.378 ± 0.008 mPa·s | viscosity (318.15 K, 101 kPa, x1 = 0.244): 0.335 ± 0.008 mPa·s | viscosity (318.15 K, 101 kPa, x1 = 0.385): 0.311 ± 0.007 mPa·s | viscosity (318.15 K, 101 kPa, x1 = 0.487): 0.3 ± 0.007 mPa·s | viscosity (318.15 K, 101 kPa, x1 = 0.703): 0.282 ± 0.007 mPa·s | viscosity (318.15 K, 101 kPa, x1 = 0.865): 0.277 ± 0.007 mPa·s | viscosity (323.15 K, 101 kPa, x1 = 0.025): 0.386 ± 0.008 mPa·s | viscosity (323.15 K, 101 kPa, x1 = 0.098): 0.362 ± 0.008 mPa·s | viscosity (323.15 K, 101 kPa, x1 = 0.244): 0.32 ± 0.007 mPa·s

Reference: the CheMixHub viscosity set
